Data reported in US20180194762A1 (Pharmacyclics LLC, priority 2017, published 2018).
Values belong to the compound of their own block, whether it stands above or below them.

What was measured:
Type in all cases: biochemical
panel of kinases = target: T1, panel of kinases (Homo sapiens, UniProt P51813); test: Inhibition of a panel of kinases (in vitro HotSpot kinase assay, 33P-ATP, 1 μM ATP), other kinases; details: BMX wild-type, read-out: BMX-WT IC50
T1 sequence (P51813 1-675): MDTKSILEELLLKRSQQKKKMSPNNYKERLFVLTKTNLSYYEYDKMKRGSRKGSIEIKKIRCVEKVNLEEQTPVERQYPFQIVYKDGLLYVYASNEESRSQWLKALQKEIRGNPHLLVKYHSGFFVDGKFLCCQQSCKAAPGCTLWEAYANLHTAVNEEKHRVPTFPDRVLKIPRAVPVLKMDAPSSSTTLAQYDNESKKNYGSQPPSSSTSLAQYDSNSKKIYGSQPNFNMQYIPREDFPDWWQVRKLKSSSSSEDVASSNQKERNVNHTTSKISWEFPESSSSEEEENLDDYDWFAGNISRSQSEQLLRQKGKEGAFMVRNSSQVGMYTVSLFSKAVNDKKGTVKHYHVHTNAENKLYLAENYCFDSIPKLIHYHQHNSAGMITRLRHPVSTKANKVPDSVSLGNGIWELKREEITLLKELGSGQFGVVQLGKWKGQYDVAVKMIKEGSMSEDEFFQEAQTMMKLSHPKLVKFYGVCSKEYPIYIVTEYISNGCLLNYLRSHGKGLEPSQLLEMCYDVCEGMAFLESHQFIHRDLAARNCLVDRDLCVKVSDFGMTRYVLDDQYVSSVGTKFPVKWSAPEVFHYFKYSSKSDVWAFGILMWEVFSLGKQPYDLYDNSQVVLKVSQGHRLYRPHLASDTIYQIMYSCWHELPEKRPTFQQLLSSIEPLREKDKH
Protocol: Example 63: Inhibition of a Panel of Kinases The degree of inhibition of a panel of kinases is determined using the in vitro HotSpot kinase assay (purified enzymes, ^33P-ATP, an appropriate substrate and 1 μM ATP).

TEC = target: T2, TEC (Homo sapiens, UniProt P42680); test: Inhibition of a panel of kinases (in vitro HotSpot kinase assay, 33P-ATP, 1 μM ATP); details: for IC50: HotSpot kinase assay, 1 μM ATP; for TEC/Btk: ratio of TEC IC50 to Btk IC50 (selectivity)
T2 sequence (P42680 1-631): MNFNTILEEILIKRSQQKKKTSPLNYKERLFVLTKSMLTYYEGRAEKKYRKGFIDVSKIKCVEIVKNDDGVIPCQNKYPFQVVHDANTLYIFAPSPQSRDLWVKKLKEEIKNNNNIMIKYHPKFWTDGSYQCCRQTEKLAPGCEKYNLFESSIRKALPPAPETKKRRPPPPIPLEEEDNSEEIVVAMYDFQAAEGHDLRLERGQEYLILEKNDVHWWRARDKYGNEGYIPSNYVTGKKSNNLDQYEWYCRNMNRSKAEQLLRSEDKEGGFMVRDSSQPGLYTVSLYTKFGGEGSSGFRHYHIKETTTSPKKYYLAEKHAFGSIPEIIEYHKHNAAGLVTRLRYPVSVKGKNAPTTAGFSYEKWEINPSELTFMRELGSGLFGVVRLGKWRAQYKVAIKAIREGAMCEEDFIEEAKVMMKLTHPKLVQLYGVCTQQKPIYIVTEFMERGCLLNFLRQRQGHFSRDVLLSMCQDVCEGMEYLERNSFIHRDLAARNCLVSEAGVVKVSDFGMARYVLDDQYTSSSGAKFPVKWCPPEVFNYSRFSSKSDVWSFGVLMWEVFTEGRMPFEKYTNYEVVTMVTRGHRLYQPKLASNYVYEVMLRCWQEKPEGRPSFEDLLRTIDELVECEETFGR
Summary of the method: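 Radiometric read-out: 33P transfer to a suitable substrate by each purified enzyme, ATP at 1 μM. Values are degree of inhibition.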

Btk = target: T3, Btk (Homo sapiens, UniProt Q06187); test: Btk in vitro inhibitory activity (one of Method A TR-FRET, Method B electrophoretic mobility shift, Method C radiometric filter binding); details: wild-type Btk; read-out: Btk-WT IC50
T3 construct: purified from insect cells as a full-length construct containing a N-terminal 6X-His tag; His6 (N); made in house; host or cells: insect cells (Method C)
Summary of the method: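 Three alternative formats were used. A radiometric filter-binding read used 8 nM full-length His-BTK with 0.2 mg/mL poly(Glu-Tyr) 4:1 (C); microfluidic separation of 1 μM FAM-peptide by 1 nM BTK gave IC50 from 12-point curves (B); TR-FRET at Km ATP, 0.5 nM Btk, gave Ki(app)-derived IC50 (A).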

T3 sequence (Q06187 whole entry): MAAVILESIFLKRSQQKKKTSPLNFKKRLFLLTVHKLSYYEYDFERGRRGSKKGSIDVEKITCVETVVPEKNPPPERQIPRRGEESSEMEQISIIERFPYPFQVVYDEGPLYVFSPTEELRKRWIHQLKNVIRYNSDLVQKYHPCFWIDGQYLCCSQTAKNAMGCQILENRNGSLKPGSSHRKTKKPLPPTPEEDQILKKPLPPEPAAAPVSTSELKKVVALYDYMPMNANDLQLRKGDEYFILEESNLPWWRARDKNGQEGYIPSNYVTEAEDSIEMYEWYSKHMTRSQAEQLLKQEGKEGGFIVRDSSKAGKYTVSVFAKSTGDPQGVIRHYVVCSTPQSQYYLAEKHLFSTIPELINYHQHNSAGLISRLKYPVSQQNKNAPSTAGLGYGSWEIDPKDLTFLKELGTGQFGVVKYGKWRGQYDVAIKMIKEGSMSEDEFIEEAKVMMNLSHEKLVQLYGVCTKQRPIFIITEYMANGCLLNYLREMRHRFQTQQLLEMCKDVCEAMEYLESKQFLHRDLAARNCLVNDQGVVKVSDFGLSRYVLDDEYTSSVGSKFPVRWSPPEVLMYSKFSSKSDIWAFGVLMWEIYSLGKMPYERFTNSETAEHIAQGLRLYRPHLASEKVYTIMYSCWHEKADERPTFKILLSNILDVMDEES

SMILES: CC(C)(C)c1nc(C(=O)NC2(c3ccc(-c4ccnc5[nH]nc(N[C@@H]6CCNC6)c45)cc3)CC2)no1 [Compound 1, 5-tert-butyl-N-{1-[4-(3-{[(3R)-pyrrolidin-3-yl]amino}-1H-pyrazolo[3,4-b]pyridin-4-yl)phenyl]cyclopropyl}-1,2,4-oxadiazole-3-carboxamide]
- IC50 (panel of kinases): > 10000 nM
- IC50 (TEC): > 10000 nM
- TEC/Btk (TEC): >100
- IC50 (Btk): 57.7 nM

SMILES: C=CC(=O)N1CC[C@@H](Nc2n[nH]c3nccc(-c4ccc(CNC(=O)c5noc(C(C)(C)C)n5)c(F)c4)c23)C1 [Compound 3, (R)—N-(4-(3-((1-acryloylpyrrolidin-3-yl)amino)-1H-pyrazolo[3,4-b]pyridin-4-yl)-2-fluorobenzyl)-5-(tert-butyl)-1,2,4-oxadiazole-3-carboxamide]
- IC50 (panel of kinases): 39 nM
- IC50 (TEC): 20 nM
- TEC/Btk (TEC): 98
- IC50 (Btk): 0.205 nM

SMILES: C=CC(=O)N1CC[C@@H](Nc2n[nH]c3nccc(-c4ccc(C5(NC(=O)c6noc(C(C)(C)C)n6)CC5)cc4)c23)C1 [Compound 4, (R)—N-(1-(4-(3-((1-acryloylpyrrolidin-3-yl)amino)-1H-pyrazolo[3,4-b]pyridin-4-yl)phenyl)cyclopropyl)-5-(tert-butyl)-1,2,4-oxadiazole-3-carboxamide]
- IC50 (panel of kinases): 132 nM
- IC50 (TEC): 103 nM
- TEC/Btk (TEC): 184
- IC50 (Btk): 0.559 nM

SMILES: CCC(=O)N1CC[C@@H](Nc2n[nH]c3nccc(-c4ccc(C5(NC(=O)c6noc(C(C)(C)C)n6)CC5)cc4)c23)C1 [Compound 5, (R)-5-(tert-butyl)-N-(1-(4-(3-((1-propionylpyrrolidin-3-yl)amino)-1H-pyrazolo[3,4-b]pyridin-4-yl)phenyl)cyclopropyl)-1,2,4-oxadiazole-3-carboxamide]
- IC50 (panel of kinases): 4350 nM
- IC50 (TEC): 2590 nM
- TEC/Btk (TEC): 49
- IC50 (Btk): 52.7 nM

SMILES: C=CC(=O)N1CC[C@@H](Nc2n[nH]c3nccc(-c4cccc(NC(=O)c5ccc(C(C)(C)C)cc5)c4C)c23)C1 [Compound 9, 4-tert-butyl-N-[2-methyl-3-(3-{[(3R)-1-(prop-2-enoyl)pyrrolidin-3-yl]amino}-1H-pyrazolo[3,4-b]pyridin-4-yl)phenyl]benzamide]
- IC50 (panel of kinases): 1910 nM
- IC50 (TEC): 2460 nM
- TEC/Btk (TEC): 680
- IC50 (Btk): 3.62 nM

SMILES: CC#CC(=O)N1CC[C@@H](Nc2n[nH]c3nccc(-c4cccc(NC(=O)c5ccc(C(C)(C)C)cc5)c4C)c23)C1 [Compound 10, N-[3-(3-{[(3R)-1-(but-2-ynoyl)pyrrolidin-3-yl]amino}-1H-pyrazolo[3,4-b]pyridin-4-yl)-2-methylphenyl]-4-tert-butylbenzamide]
- IC50 (panel of kinases): > 10000 nM
- IC50 (TEC): 8350 nM
- TEC/Btk (TEC): 637
- IC50 (Btk): 13.1 nM

SMILES: C=CC(=O)N1CC[C@@H](Nc2n[nH]c3nccc(-c4cccc(-n5ccc6cc(C7CC7)cc(F)c6c5=O)c4COC(C)=O)c23)C1 [Compound 16, [2-(6-cyclopropyl-8-fluoro-1-oxo-1,2-dihydroisoquinolin-2-yl)-6-(3-{[(3R)-1-(prop-2-enoyl)pyrrolidin-3-yl]amino}-1H-pyrazolo[3,4-b]pyridin-4-yl)phenyl]methyl acetate]
- IC50 (panel of kinases): 4050 nM
- IC50 (TEC): 3990 nM
- IC50 (Btk): > 10000 nM

SMILES: C[C@@H](NC(=O)c1nc(C(C)(C)C)no1)c1ccc(-c2ccnc3[nH]nc(NC4CCN(S(C)(=O)=O)C4)c23)cc1 (stereo partly drawn) [Example 386, 3-tert-butyl-N-{(1R)-1-[4-(3-{[1-(methanesulfonyl)pyrrolidin-3-yl]amino}-1H-pyrazolo[3,4-b]pyridin-4-yl)phenyl]ethyl}-1,2,4-oxadiazole-5-carboxamide]
- IC50 (panel of kinases): 6920 nM
- IC50 (Btk): 10.5 nM

SMILES: C[C@@H](NC(=O)c1cc(C(C)(C)O)on1)c1ccc(-c2ccnc3[nH]nc(NC4CCOC4)c23)cc1 (stereo partly drawn) [Example 398, 5-(2-hydroxypropan-2-yl)-N-[(1R)-1-(4-{3-[(oxolan-3-yl)amino]-1H-pyrazolo[3,4-b]pyridin-4-yl}phenyl)ethyl]-1,2-oxazole-3-carboxamide]
- IC50 (panel of kinases): 5730 nM
- IC50 (Btk): 625 nM

Next, values leading:

- IC50 (panel of kinases): 1980 nM
- IC50 (TEC): 950 nM
- TEC/Btk (TEC): 82
- IC50 (Btk): 11.6 nM
SMILES: CC(C)(C)c1nc(C(=O)NCc2ccc(-c3ccnc4[nH]nc(N[C@@H]5CCNC5)c34)cc2F)no1 [Compound 2, (R)-5-(tert-butyl)-N-(2-fluoro-4-(3-(pyrrolidin-3-ylamino)-1H-pyrazolo[3,4-b]pyridin-4-yl)benzyl)-1,2,4-oxadiazole-3-carboxamide]

- IC50 (panel of kinases): 182 nM
- IC50 (TEC): 130 nM
- TEC/Btk (TEC): 210
- IC50 (Btk): 0.62 nM
SMILES: C=CC(=O)N1CC[C@@H](Nc2n[nH]c3nccc(-c4ccc(CNC(=O)c5ccc(C(C)(C)C)cc5)c(F)c4)c23)C1 [Compound 6, 4-tert-butyl-N-{[2-fluoro-4-(3-{[(3R)-1-(prop-2-enoyl)pyrrolidin-3-yl]amino}-1H-pyrazolo[3,4-b]pyridin-4-yl)phenyl]methyl}benzamide]

- IC50 (panel of kinases): 274 nM
- IC50 (TEC): 296 nM
- TEC/Btk (TEC): 179
- IC50 (Btk): 1.65 nM
SMILES: CC#CC(=O)N1CC[C@@H](Nc2n[nH]c3nccc(-c4ccc(CNC(=O)c5ccc(C(C)(C)C)cc5)c(F)c4)c23)C1 [Compound 7, N-{[4-(3-{[(3R)-1-(but-2-ynoyl)pyrrolidin-3-yl]amino}-1H-pyrazolo[3,4-b]pyridin-4-yl)-2-fluorophenyl]methyl}-4-tert-butylbenzamide]

- IC50 (panel of kinases): > 10000 nM
- IC50 (TEC): > 10000 nM
- IC50 (Btk): 144 nM
SMILES: CC(C)(C)c1ccc(C(=O)NCc2ccc(-c3ccnc4[nH]nc(N[C@@H]5CCNC5)c34)cc2F)cc1 [Compound 8, 4-tert-butyl-N-{[2-fluoro-4-(3-{[(3R)-pyrrolidin-3-yl]amino}-1H-pyrazolo[3,4-b]pyridin-4-yl)phenyl]methyl}benzamide]

- IC50 (panel of kinases): 7000 nM
- IC50 (Btk): 719 nM
SMILES: O=C(NCc1ccc(-c2ccnc3[nH]nc(NC4CCNC4)c23)cc1F)c1ccc2c(c1)OCCCO2 (stereo not drawn) [Example 350, N-[(2-fluoro-4-{3-[(pyrrolidin-3-yl)amino]-1H-pyrazolo[3,4-b]pyridin-4-yl}phenyl)methyl]-3,4-dihydro-2H-1,5-benzodioxepine-7-carboxamide]

- IC50 (panel of kinases): 1530 nM
- IC50 (Btk): 108 nM
SMILES: O=C(NCc1ccc(-c2ccnc3[nH]nc(N[C@@H]4CCNC4)c23)cc1F)c1ccc2scnc2c1 [Example 352, (R)-N-[(2-fluoro-4-{3-[(pyrrolidin-3-yl)amino]-1H-pyrazolo[3,4-b]pyridin-4-yl}phenyl)methyl]-1,3-benzothiazole-5-carboxamide]

- IC50 (panel of kinases): 5500 nM
- IC50 (Btk): 48.3 nM
SMILES: CC(=O)N[C@@H]1CCN(c2n[nH]c3nccc(-c4ccc([C@@H](C)NC(=O)c5cc(C(C)(C)O)on5)cc4)c23)C1 [Example 363, N-[(1R)-1-(4-{3-[(3R)-3-acetamidopyrrolidin-1-yl]-1H-pyrazolo[3,4-b]pyridin-4-yl}phenyl)ethyl]-5-(2-hydroxypropan-2-yl)-1,2-oxazole-3-carboxamide]

- IC50 (panel of kinases): 7210 nM
- IC50 (Btk): 27.3 nM
SMILES: C[C@@H](NC(=O)c1nc(C(C)(C)C)no1)c1ccc(-c2ccnc3[nH]nc(NC4CCN(S(C)(=O)=O)CC4)c23)cc1 [Example 387, 3-tert-butyl-N-{(1R)-1-[4-(3-{[1-(methanesulfonyl)piperidin-4-yl]amino}-1H-pyrazolo[3,4-b]pyridin-4-yl)phenyl]ethyl}-1,2,4-oxadiazole-5-carboxamide]
